# Reference: PMC6615598, “Novel antibiotics effective against gram-positive and -negative multi-resistant bacteria with limited resistance” (PLoS Biology, 2019)
# Read-outs that look alike come from different tables or passages of the source. Starred links: 1 amine or outer side, 2 acyl side, 3 side chain; linkers in the order of their positions; H or OH if unused. Non-standard residues stand in square brackets, D forms with d. Residues, ends and D or L forms follow the SMILES beside them. azaβ3(1Nal) = O=C(CN(Cc1cccc2ccccc12)N[*:1])[*:2]
# Tests used:
# [1] = tested on: A. baumanii 11896
# Method: (§1) (10−4 M final concentrations). At selected time intervals, 100 μl of reaction mixture was collected, quenched by 200 μl 95% EtOH, and adjusted at pH 2 to prevent peptide adsorption to serum proteins. […] Supernatants were analyzed by RP-HPLC on an Xbridge C18 column with a linear gradient of water, 0.08% TFA, and acetonitrile with 1% TFA. HPLC peak areas were used to calculate the percentages of intact compound remaining at the various time points. MIC and MBC values were determined in triplicate in many ESKAPE clinical isolates, including a dozen MDR S. aureus, by the broth microdilution method. Peptidomimetics and antibiotics were assayed in a concentration range of 1 to 128 μM. The bacterial inoculum (5 × 10^5 colony-forming units [CFUs]/well) was prepared in MHB or CAMHB (150 μl). A Biotek Synergy 2 spectrophotometer was used to record the results after 18–20 h incubation at 35°C (±2°C). […] After every hour of culture for 4 h, serial dilutions were plated on BHI plates and incubated overnight at 37°C, and then the CFUs were counted and expressed as log CFU/ml. Phosphate-buffered saline (PBS)-exposed S. aureus MRSA was included as a control.
# [2] = tested on: A. baumanii 7985
# Method: as §1
# [3] = tested on: E. faecium Aus0004
# Method: as §1
# [4] = tested on: Enterobacter cloacae ATCC13047; settings: ATCC13047
# Method: as §1
# [5] = tested on: Escherichia coli 066; settings: 066
# Method: as §1
# [6] = tested on: Escherichia coli 13090
# Method: as §1
# [7] = tested on: Escherichia coli 146; settings: 146
# Method: as §1
# [8] = tested on: Escherichia coli 283; settings: 283
# Method: as §1
# [9] = tested on: Escherichia coli 293; settings: 293
# Method: as §1
# [10] = tested on: Escherichia coli 444; settings: 444
# Method: as §1
# [11] = tested on: Escherichia coli 508
# Method: as §1
# [12] = tested on: Escherichia coli 750
# Method: as §1
# [13] = tested on: Escherichia coli 758; settings: 758
# Method: as §1
# [14] = tested on: Escherichia coli K12; settings: K12
# Method: as §1
# [15] = tested on: Escherichia coli MCR−1; settings: MCR−1
# Method: as §1
# [16] = tested on: Escherichia coli ML35P; settings: E. coli ML35P; broth microdilution; 3 independent experiments
# Method: as §1
# [17] = tested on: Escherichia coli PV; settings: PV
# Method: as §1
# [18] = tested on: K. pneumoniae 13825
# Method: as §1
# [19] = tested on: K. pneumoniae 13829; settings: 13829
# Method: as §1
# [20] = tested on: P. aeruginosa 15637; settings: 15637
# Method: as §1
# [21] = tested on: P. aeruginosa 15638
# Method: as §1
# [22] = tested on: P. aeruginosa 15641; settings: 15641
# Method: as §1
# [23] = tested on: P. aeruginosa 15643
# Method: as §1
# [24] = tested on: P. aeruginosa 15644
# Method: as §1
# [25] = tested on: P. aeruginosa PA14; settings: PA14
# Method: as §1
# [26] = tested on: S. aureus 702697 HOU; assay: microbe, parasite or virus in culture
# Method: as §1
# (§2) Supplementary file pbio.3000337.s007.docx: S1 Table Antibacterial activity of the 4 peptidomimetics focusing on 9 S. aureus MDR clinical isolates. Clinical isolates BCB/POE and 740404 DUN are from human sepsis. The other strains are from catheter infections or suppurating wounds. Brilacidin was used as a control. MDR, multidrug resistant. (DOCX) Click here for additional data file.
# [27] = tested on: S. aureus 740404 DUN; assay: microbe, parasite or virus in culture
# Method: as §1, §2
# [28] = tested on: S. aureus PM64; assay: microbe, parasite or virus in culture
# Method: as §1, §2
# [29] = tested on: S. aureus ROUS; assay: microbe, parasite or virus in culture
# Method: as §1, §2
# [30] = tested on: S. aureus MRSA; assay: Time-kill assay at 30-fold MIC; type: cell-based; settings: 4 h
# Method: as §1
# [31] = Stability in human serum (half-life); type: in vitro ADME; settings: 25% human serum, pre-incubated 15 min at 37°C, peptide 10^−4 M, RP-HPLC peak areas, mean of biological triplicates
# Method: as §1
# Supplementary file pbio.3000337.s013.docx: S7 Table Peptide half-lives in human and mouse sera. […] Peptide amounts and half-lives were determined by HPLC. Experiments were conducted on 25% human or mouse sera. Values are shown in minutes. The mean values correspond to biological triplicates. HPLC, high pressure liquid chromatography. (DOCX) Click here for additional data file.
Structure (SMILES),MIC [1],MIC [2],MIC [4],MIC [5],MIC [7],MIC [8],MIC [9],MIC [10],MIC [13],MIC [14],MIC [15],MIC [16],MIC [17],MIC [19] [µM],MIC [20],MIC [22],MIC [25],Bactericidal activity in time-kill curves [30],half-life [31] [h],further results
CC(C)[C@@H]1NC(=O)[C@H](CCCNC(=N)N)NC(=O)[C@H](CCCNC(=N)N)NC(=O)[C@H](Cc2c[nH]c3ccccc23)NC(=O)[C@H](Cc2ccccc2)NC(=O)[C@H](Cc2ccccc2)NC(=O)[C@H](CCCCN)NC1=O [Pep18] (cyclo(FFWRRVK)),>128 µM,>128 µM,128 (131.2) μM,32 (32.8) μM,32 (32.8) μM,32 (32.8) μM,32 (32.8) μM,32 (32.8) μM,32 (32.8) μM,16 (16.4) μM,32 (32.8) μM,16 (16.4) μM,32 (32.8) μM,>128,8 (8.2) μM,32 (32.8) μM,8 (8.2) μM,higher bactericidal activities than vancomycin,16.3 ± 1.67,"MIC ([3]; E. faecium Aus0004, broth microdilution, 3 independent experiments): 64 (65.6) μM; MIC ([6]; E. coli 13090, clinical strain, Caen hemoculture, broth microdilution, 3 independent experiments): 16 (16.4) μM; MIC ([11]; E. coli 508, clinical strain, Rennes urinary catheter, broth microdilution, 3 independent experiments): 64 (65.6) μM; MIC ([12]; E. coli 750, clinical strain, Rennes urinary catheter, broth microdilution, 3 independent experiments): 16 (16.4) μM; MIC ([18]; K. pneumoniae 13825, clinical strain, Caen hemoculture, broth microdilution, 3 independent experiments): 16 (16.4) μM; MIC ([21]; P. aeruginosa 15638, clinical strain, Caen hemoculture, broth microdilution, 3 independent experiments): 64 (65.6) μM; MIC ([23]; P. aeruginosa 15643, clinical strain, Caen hemoculture, broth microdilution, 3 independent experiments): 16 (16.4) μM; MIC ([24]; P. aeruginosa 15644, clinical strain, Caen hemoculture, broth microdilution, 3 independent experiments): 64 (65.6) μM; MIC ([26]; MDR S. aureus clinical isolate 702697 HOU): 16 mg/L^-1; MIC ([27]; MDR S. aureus clinical isolate 740404 DUN, human sepsis): 32 mg/L^-1; MIC ([28]; MDR S. aureus clinical isolate PM64): 32 mg/L^-1; MIC ([29]; MDR S. aureus clinical isolate ROUS): 8 mg/L^-1"
CC(C)[C@@H]1NC(=O)[C@H](CCCNC(=N)N)NC(=O)[C@H](CCCNC(=N)N)NC(=O)CN(Cc2cccc3ccccc23)NC(=O)[C@H](Cc2ccccc2)NC(=O)CN(Cc2cccc3ccccc23)NC(=O)[C@H](CCCCN)NC1=O [Pep19] (cyclo([azaβ3(1Nal)]F[azaβ3(1Nal)]RRVK)),8 (9) μM,8 (9) μM,16 (18) μM,8 (9) μM,8 (9) μM,8 (9) μM,16 (18) μM,8 (9) μM,8 (9) μM,4 (4.5) μM,16 (18) μM,4 (4.5) μM,8 (9) μM,>128,8 (9) μM,16 (18) μM,8 (9) μM,higher bactericidal activities than vancomycin,24.2 ± 4.33,MIC ([3]; Aus0004): 8 (9) μM; MIC [6]; 13090: 4 (4.5) μM; MIC [11]; 508: 8 (9) μM; MIC [12]; 750: 8 (9) μM; MIC [18]; 13825: 8 (9) μM; MIC [21]; 15638: 16 (18) μM; MIC [23]; 15643: 8 (9) μM; MIC [24]; 15644: 16 (18) μM; MIC ([26]; 702697 HOU): 4 mg/L^-1; MIC ([27]; 740404 DUN): 8 mg/L^-1; MIC ([28]; PM64): 8 mg/L^-1; MIC ([29]; ROUS): 2 mg/L^-1
